Data set [1] concerns neoplastic cells (osteosarcoma cells). Description: Immunofluorescence visualization (actin, vinculin, DAPI) of neoplastic cells on grafted polymer scaffold, 24 hours. Conditions: polymer scaffold covalently modified with mixture of GFR-binding compound and RGD peptide; 24 hours of culture. The class given is cell-based. The procedure:
FIG. 12 is (a) a representation of a Quantitative Real Time PCR analysis of the expression of DMP-1, SCT and RANK-L in neoplastic cells (osteosarcoma cells) cultured on a native polymer scaffold (control) and on a polymer scaffold grafted with a mixture comprising a GFR-binding compound as defined in the present disclosure and a RGD peptide, after 24 hours of culture, (b) immunofluorescence staining of a representative neoplastic cell (osteosarcoma cells) cultured on a polymer scaffold grafted with a mixture comprising a GFR-binding compound as defined in the present disclosure (ID SEQ NO: 2) and a RGD peptide, after 24 hours of culture. The actin filaments were immunostained by using Alexa 488-phalloidin. The focal adhesions were represented by immunostaining with anti-vinculin. The nucleus was stained with DAPI and is represented by a circle in the center of the cell. Scale bar: 5 μm. (c) is a diagram representing the grafting density of a radiolabeled GFR-binding compound as defined in the present disclosure covalently grafted on a polymer scaffold and of a radiolabeled GFR-binding compound and a non-labeled RGD peptide both grafted on a polymer scaffold. The measurements were performed by using radioactivity quantification (no significant difference was observed). […]

Data set [2] in a line: Stability of non-covalent association, release of FITC-labelled GFR-binding compound from carrier. The format is physicochemical. Conditions: SEQ ID NO: 9 with apatite ceramics, SEQ ID NO: 10 with type-I collagen sponge; after 3, 7 or 10 days. The procedure:
Non-covalent associations of the bioactive carriers were performed under atmospheric conditions (air) at room temperature (about 22° C.). The non-covalent association was carried out using a mixture of GFR-binding compound of SEQ ID NO: 9 (concentration of 1×10^−3 M) with the apatite ceramics or a mixture of GFR-binding compound of SEQ ID NO: 10 (concentration of 1×10^−3M) with the type-I collagen sponge. The non-covalent pharmaceutical associations were characterized by covalently associating fluorescent GFR-binding compounds of SEQ ID NO: 9 and 10 (covalently bound to fluorescein isothiocyanate (FITC), FIG. 1).

Another data set has as its system Vinculin. Description: Vinculin gene expression by RT-PCR. The conditions noted are these: osteosarcoma cells on PET associations; 24 hours. The class given is cell-based, human. The procedure:
(§1) After 24 hours of culture, total RNA was extracted by using the RNeasy total RNA kit (Qiagen®) according to the manufacturer's instructions. Purified total RNA was used as a template in order to make cDNA by a reverse transcription reaction (Gibco BrI®) with random primers (Invitrogen®). The cDNA was then used as a template for a real-time PCR amplification in the presence of SYBR green reagents (Bio-Rad®) by using a thermocycler (iCycler, Biorad®). Data were analyzed with the iCycler IQ™® software and compared by the ΔΔCt method. Briefly, the mean Ct value of the target gene was normalized to its averaged Ct values of the housekeeping gene (GAPDH) to give a ΔCt value, which was then normalized to a control sample to obtain a ΔΔCt value. The results were obtained from two series of experiments performed in triplicate.
(§2) Neoplastic cells (in this example osteosarcoma cells) were cultured on pharmaceutical associations comprising PET as a bioactive carrier and one of GFR-binding compounds of SEQ ID NO: 12, 19, 30 or 39. After 24 hours, the Paxillin and Vinculin gene expression decreased as shown by RT-PCR (FIG. 9).

The test system of the next data set is ERK. Description: Adhesion checkpoint activation, western blot of ERK phosphorylation (Ras/MAP kinase). The format is cell-based, human. The conditions noted are these: osteosarcoma cells on PET associations; 24 hours. The procedure: (§3) After 24 hours of culture, cells were permeabilized (10% SDS, 25 mM NaCl, 10 nM pepstatin and 10 nM leupeptin in distilled water and loading buffer), boiled for 10 minutes and resolved by reducing PAGE (Invitrogen). Proteins were transferred onto nitrocellulose, blocked, and labeled with HRP-conjugated antibodies (Invitrogen). Integrin αv, α5, α3, α4, β1, β, β5 and […] were blotted by treating the nitrocellulose with monoclonal anti-integrin (extracellular domain) αv, α5, α3, α4, β1, β3, β5 and β6 antibodies (Santa Cruz Biotechnology). Phosphor-Smad1/5/8 was blotted by treating the nitrocellulose with monoclonal anti-p-Smad1/5/8 (Santa Cruz Biotechnology). For all of the experiments the western blot was performed in triplicate, along with an additional blot for actin and coomassie blue staining to ensure constant protein load among samples.
(§4) Neoplastic cells (in this example osteosarcoma cells) were cultured on pharmaceutical associations comprising PET as a bioactive carrier and one of GFR-binding compounds of SEQ ID NO: 12, 19, 30 or 39. The main signaling pathways include: Ras/MAP kinase, FAK/Src kinase and PIP2 which are decreased after 24 hours as shown by western blot quantifications (FIG. 8). […] Finally, a decrease of 3-phosphoinositide-dependent protein kinase 1 (PDK1) protein expression was also was observed (FIG. 8C).
For orientation: A western blot detects proteins with antibodies after separation by electrophoresis.

Another data set deals with Src kinase. Description: Adhesion checkpoint activation, western blot of Src kinase phosphorylation (FAK/Src kinase). The conditions noted are these: osteosarcoma cells on PET associations; 24 hours. The format is cell-based, human. The procedure: as §3, §4
In another data set the test system is Paxillin. The data set can be described thus: Paxillin gene expression by RT-PCR. The class given is cell-based, human. Conditions: osteosarcoma cells on PET associations; 24 hours. The procedure:
as §1, §2

For data set [3], the system named is Cyclin D (arithmetic mean of Cyclin D1, Cyclin D2 and Cyclin D3). Description: Cyclin D profile by RT-PCR. Conditions: osteosarcoma cells on PET associations; after the first 30 min of cell culture. The format is cell-based, human. The procedure:
as §1
Neoplastic cells (in this example osteosarcoma cells) were cultured on pharmaceutical associations comprising PET as a bioactive carrier and one of GFR-binding compounds of SEQ ID NO: 12, 19, 30 or 39. The Cyclin D (the arithmetic mean of Cyclin D1, Cyclin D2 and Cyclin D3) gene expression decreased after the first 30 min of cell culture as shown by RT-PCR (FIG. 10).

The test system of data set [4] is 3-phosphoinositide-dependent protein kinase 1 (PDK1). Description: Adhesion checkpoint activation, western blot of PDK1 protein expression (PIP2). The format is cell-based, human. Conditions: osteosarcoma cells on PET associations; 24 hours. The procedure:
as §3, §4

For data set [5], the system named is Smad1/5/8 signaling pathway. The data set can be described thus: Growth factor receptor activation: quantification of western blots of phospho-Smad1/5/8. The class given is cell-based. The conditions noted are these: human osteosarcoma cells MG63; 400 ng/mL GFR-binding compound; Table 4. The procedure:
as §3

Data set [6] deals with human osteosarcoma cells, MG63. The data set can be described thus: Tumor cell recoding via quantification of pRB (immunofluorescence, ImageJ). The format is cell-based. The procedure:
The cells were first fixed for 20 min with 4% paraformaldehyde/PBS at 4° C. After fixation, the cells were permeabilized in PBS containing 1% Triton X-100 for 15 min. Protein immunofluorescent visualization was performed by first treating the cells with 1% (v/v) specific monoclonal antibodies for 1 hour at 37° C. Then the samples were incubated with Alexa Fluor® 568 or 647 (F(ab′)2 fragment of IgG(H+L)) during 30 min at room temperature. The cell nuclei were counterstained in 20 ng/mL DAPI for 10 min at room temperature.
For this type of quantification the freeware image analysis ImageJ® software was used. The raw image was first converted to an 8-bit file, and then the unsharp mask feature was used (settings 1:0.2) to remove the image background (rolling ball radius 10). After smoothing, the resulting image, which appears similar to the original photomicrograph but with minimal background, was then converted to a binary image by setting a threshold. Threshold values were determined empirically by selecting a setting, which gave the most accurate binary image for a subset of randomly selected photomicrographs. The cell area was determined by manual delineation on raw fluorescent images. Total contact area and mean contact area per cell were calculated by “analyse particules” in ImageJ®. A minimum of 50 cells per condition were analyzed.
Neoplastic cells (in this example osteosarcoma cells) were cultured on pharmaceutical associations comprising PET as a bioactive carrier and one of GFR-binding compounds of SEQ ID NO: 11 to 14, 24 to 26 and 51 to 63. A rapid (24 hours) decrease of the tumor markers was observed (FIG. 7). The adhesion checkpoint then activates the tumor suppressor proteins p53 and pRB. […]

No end group written: not given here.

“SEQ ID NO: 2: a GFR-binding compound as defined in the present disclosure, grafted on a polymer scaffold in a mixture with a RGD peptide (KVGKASSVPTKLSAISTLYLDDMGVPTLKNYQNMVVRASGSH; also: grafted on polymer scaffold in mixture with RGD peptide)”: the “Morphology of neoplastic cells by immunofluorescence visualization” value in data set [1] is given as “Spheroid-like structures of neoplastic cells become predominant”.
For the substance “SEQ ID NO: 9: GFR-binding compound non-covalently associated with apatite ceramics; sequence only in the sequence listing (RNVQCRPTQVQLSAISTLYLEIVRKKPLKNYQTLEDH; non-covalently associated with apatite ceramics; Non-cyclic GFR-binding peptide)”, in [2], the “release of GFR-binding compound from non-covalent association” value is “no significant release”.
On the same count and under the same terms, to “SEQ ID NO: 10: GFR-binding compound non-covalently associated with type-I collagen sponge; sequence only in the sequence listing (PSSAPTQLSATSVLYYDDSSNVILRKHR; not fully specified)” belongs “no significant release”.
Take “SEQ ID NO: 12: GFR-binding compound covalently associated with PET as bioactive carrier; sequence only in the sequence listing (KVGKASSVPTKLSAISMLYLDDMGVPTLKNYQNMVVRAS; also: covalently attached to PET (bioactive carrier), site not given here)”: the Vinculin gene expression entry with Vinculin is “decreased”. For the same substance, the “phosphorylation at Thr202 and Tyr204 on ERK” value (shortened to “phosphorylation … on ERK”) in the data set with ERK is reported as “absence of phosphorylation”. The “phosphorylation of Src kinase” value in the data set with Src kinase was “no phosphorylation at Thr416 but phosphorylation of Tyr527”. Further, the Paxillin gene expression entry with Paxillin is listed as “decreased”. The “Cyclin D gene expression” value in [3] is reported as “decreased”. Besides, the PDK1 protein expression result in [4] is “decrease”.
Consider “SEQ ID NO: 19: GFR-binding compound covalently associated with PET as bioactive carrier; sequence only in the sequence listing (PSSAPTQLSATSMLYYDDSSNVILRKHRQHNK; also: covalently attached to PET)”, for which the Vinculin gene expression result in the data set with Vinculin was “decreased”. For the same substance, the “phosphorylation … on ERK” value in the data set on ERK is reported as “absence of phosphorylation”. The “phosphorylation of Src kinase” value in the data set on Src kinase is “no phosphorylation at Thr416 but phosphorylation of Tyr527”. The Paxillin gene expression result in the data set with Paxillin is on record as “decreased”. Further, the “Cyclin D gene expression” value in data set [3] is listed as “decreased”. Besides, in [4], the PDK1 protein expression result is listed as “decrease”.
Regarding “SEQ ID NO: 30: GFR-binding compound covalently associated with PET as bioactive carrier; sequence only in the sequence listing (APTKLSAISMLYYDSSNNVIEQLSN; also: covalently attached to PET)”, the Vinculin gene expression result with Vinculin is reported as “decreased”. In addition, the “phosphorylation … on ERK” value with ERK is reported as “absence of phosphorylation”. Also, the “phosphorylation of Src kinase” value in the data set with Src kinase is on record as “no phosphorylation at Thr416 but phosphorylation of Tyr527”. For the same substance, the Paxillin gene expression result in the data set with Paxillin is “decreased”. Also, in data set [3], the “Cyclin D gene expression” value is “decreased”. In addition, the PDK1 protein expression entry in data set [4] is on record as “decrease”.
With “SEQ ID NO: 39: GFR-binding compound covalently associated with PET as bioactive carrier; sequence only in the sequence listing (KASSVPTELSPISTLYKDENEKVVLKYHYDMVV; also: covalently attached to PET)”, the Vinculin gene expression result with Vinculin is listed as “decreased”. Moreover, in the data set on ERK, the “phosphorylation … on ERK” value was “absence of phosphorylation”. Besides, the “phosphorylation of Src kinase” value in the data set on Src kinase is recorded as “no phosphorylation at Thr416 but phosphorylation of Tyr527”. In addition, the Paxillin gene expression entry in the data set on Paxillin is given as “decreased”. In [3], the “Cyclin D gene expression” value is listed as “decreased”. The PDK1 protein expression result in [4] was “decrease”.
For the substance “VSQDLSAISTLYLKIVRKEPLKNYQEMVEE (Non-cyclic GFR-binding peptide) [SEQ ID NO: 98]”, the “p-Smad1/5/8 (%)” value in data set [5] came to 39%. For the same substance, the “pRB (%)” value in data set [6] (Table 4) and in data set [6] (Table 5) was 9% in each case.

The values above are taken from US20190224279A1, “PHARMACEUTICAL ASSOCIATION COMPRISING A GROWTH FACTOR RECEPTOR AGONIST CONJUGATED TO A BIOACTIVE CARRIER FOR CONVERTING A NEOPLASTIC CELL INTO A NON-NEOPLASTIC CELL AND USES THEREOF” (HISTIDE AG, priority 2015, published 2019).
